“Also recorded” adds a separate entry of the source. Read-outs that look alike come from different tables or passages of the source.
Assays:
[1] = target: T1, interaction between HPV-16 E6 and E6AP (Human papillomavirus type 16, UniProt P03126); assay: biochemical; type: binding; conditions: for Emax: read-out: Maximal Inhibition; for activity and potency in E6/E6AP binding assay (in words): SAR library, initial 5-point dose range 12.3 µM to 1 mM
T1 construct: made in house; host or cells: E. coli BL21
Protocol: To characterize potential E6 inhibitors, a robust in vitro assay was developed to measure the interaction between HPV-16 E6 and E6AP. […] The core 70 amino acids of the E6 binding region of E6AP (residues 371-440) was fused to bacterial alkaline phosphatase (BAP) in the MY101 vector [40]. […] Binding efficiency was determined from the intensity of BAP activated chemiluminescence remaining in each well.
Kinetic analysis was performed to characterize the protein-protein interaction inherent in this assay.
The collection of 72 available structural-lead compounds was tested in the filter-plate based in vitro E6-E6AP binding assay. […] Compounds that disrupted the Flag-BAP interaction with the same potency as the HPV-16 E6 and E6AP interaction were classified as non-specific and eliminated from further analysis. […]
(§1) Pre-Block - 96-well filter plates were prepared (0.2 µm BioTrace NT, Pall). 100µL of blocking buffer (100 mM Tris pH 8.0, 100 mM NaCl, 0.1% milk) was added per well. Plates were blocked for 1 hr at RT on an orbital shaker. Buffer was removed by vacuum filtration using a vacuum manifold. GST-E6 Bead addition – GST-E6 beads were prepared at 5µg/mL in GST-E6 bead buffer (100 mM Tris pH 8.0, 100 mM NaCl, 0.1% milk, 2.5 mM DTT). 100µL of GST-E6 bead mix was added per well and incubated for 1 hr at 4°C. Buffer was removed by vacuum filtration. […] 48 µL of each reagent was added per well. For drug assay, 2µL of compound was added to each well and mixed thoroughly. […] Plates were incubated for 1-3 hours at RT on an orbital shaker. Buffer was removed by vacuum filtration. Plates were washed on the vacuum manifold, first with 200 µL buffer (100 mM Tris pH 8.0, 100 mM NaCl, 1 mM DTT), and twice more with 100µL lysis buffer without DTT. Plates were cleared and dried with on the vacuum manifold. Assay – Immunostar assay reagent was prepared and equilibrated to RT prior to addition. 60 µL of Immunostar-AP assay reagent was added, the BAP activity was allowed to develop for 10 minutes and the plates were read on a Wallace Luminometer. BAP activity was measured as relative light units (RLU) on a luminometer using the Immunostar-AP substrate (BioRad).

[2] = system: interaction between anti-FLAG antibody and the FLAG epitope in the E6AP-BAP fusion; assay: FLAG/BAP specificity filter binding assay
Protocol: The collection of 72 available structural-lead compounds was tested in the filter-plate based in vitro E6-E6AP binding assay. Compounds were tested twice at concentrations of 10, 50, and 100 µM. […] Compounds that disrupted the Flag-BAP interaction with the same potency as the HPV-16 E6 and E6AP interaction were classified as non-specific and eliminated from further analysis.
Figure 3 Activity of flavonoids in the in vitro binding assay. Compounds were tested in vitro for the ability to disrupt the E6-E6AP interaction. […] Percent inhibition was determined by the amount of BAP activity remaining in the well after washing and normalized to DMSO. Data was plotted by linear regression for single site binding using Prism (n=3, S.E.M.).
(§2) This interaction between E6 and hDlg occurs at the C-terminus of E6 and is independent of the interaction between E6 and the charged leucine helix in E6AP [21, 22].

[3] = system: HPV-16 E6 mediated p53 degradation; assay: in vitro HPV-16 E6 mediated p53 degradation assay; type: biochemical
Protocol: In vitro expressed p53 was incubated in rabbit reticulocyte lysate in the presence or absence of in vitro expressed HPV16 E6. p53 levels were reduced in reaction containing E6 proteins (Figure 8 ).
Control reactions (no DNA, p53 alone) were incubated with 1 µL wheat germ extract and 2% DMSO in reaction buffer. In vitro translated p53 and rabbit reticulocyte lysate (RRL, Promega) were added to all reactions except the no DNA control reaction to which wheat germ extract was added instead of p53. Reactions were incubated for 3 hrs at 30°C and stopped by addition of 6X reducing SDS sample buffer and heating at 95°C for 5 min. Each reaction was loaded onto a 10% SDS-PAGE gel and transferred onto PVDF (0.45 µm). p53 and 16E6 were visualized using monoclonal p53 (Pab1801, 1:1000), monoclonal 16E6 (813, Arbor Vita Corporation, 1:4000) antibody and anti-mouse HRP-labeled secondary antibody (1:2000, Sigma-Aldrich).

MBP-E6 = target: T2, MBP-E6 (Human papillomavirus type 16, UniProt P03126); assay: thermal shift (Sypro Orange) assay; type: binding, HPV-16; conditions: versus DMSO; for effect on Tm of MBP-E6: 5-150 µM tested
T2 construct: made in house; host or cells: E. coli BL21DE(3)
Protocol: A thermal shift assay was used to assess compound binding to HPV E6. In this reaction, protein denaturation is measured by an increase in fluorescence from Sypro Orange as it binds to the newly exposed hydrophobic surfaces on the protein [48]. A protein stability curve is created as a measure of the rate of protein unfolding. The relative fluorescence is plotted against temperature and the melting temperature (Tm) is determined by calculating the temperature of peak fluorescence. Ligand binding can stabilize the protein and increase the Tm. The thermal profile of MBP-E6 proteins was investigated to determine if the flavonoid derivatives could stabilize MBP-E6 protein structure during heat-induced unfolding. […] The change in Tm (∆Tm) was plotted for each compound and compared to DMSO (Figure 10F,G ).
MBP-16E6 DNA, a kind gift from G. Travé [58], was transformed into BL21DE(3) E. coli. Protein expression was performed by inoculation of a 1 mL starter culture in 100 mL of Turbo-Broth containing 0.2 % lactose, 0.05% glucose and 0.6% glycerol at 20°C for 24 hrs. Cells were lysed in 50 mM Tris HCl pH 6.8, 300 mM NaCl, 0.1 % (v/v) NP-40, 2 mM DTT and 1x protease inhibitor cocktail (EDTA-free, Roche) and sonicated as described before. Cell lysate was cleared by centrifugation at 15000xg, 4°C for 30 min and equilibrated with amylose resin beads (New England Biolabs, Inc.) by inversion for 3 hrs at 4°C. Bound beads were washed one time in lysis buffer and four times with wash buffer (50 mM Tris-HCl pH 6.8, 400 mM NaCl, 2 mM DTT, 1x protease inhibitor cocktail). Bound MBP-E6 proteins were eluted using a final concentration of 20 mM maltose in 5 bed volumes of wash buffer. All steps were performed at 4°C. Protein concentration was measured by BCA (BioRad). Thermostability of MBP-E6 proteins was analyzed at a final concentration of 1 µM in reaction buffer (50 mM TrisHCl pH 6.8, 400 mM NaCl, 2 mM DTT). MBP-E6 proteins were equilibrated with CAF-8 (5 µM-150 µM), CAF-24 (5 µM-150 µM), CAF-26 (5 µM-150 µM) or DMSO for 30 min in reaction buffer. Sypro Orange, a hydrophobic fluorescent dye, was added at the end of the incubation period at a final concentration of 5X. The final DMSO concentration (1.8% v/v) was kept constant across the concentration range. Fluorescence was measured using the FRET channel of CFX96 Real-Time PCR thermal cycler (BioRad) over a temperature range of 25°C to 95°C. Temperature increments were set to 0.5°C for 30 sec followed by plate reading. Melt curves were determined in triplicate and repeated four times. Melt curves represent the relative fluorescence of the 1st derivative of four experiments. Melting temperature (Tm) was calculated by CFX manager software. The average melting temperature of the triplicate was used to calculate the ∆Tm for each experiment. ∆Tm values are expressed as the change vs. DMSO.

[4] = solubility in aqueous SPR buffers; type: physicochemical; conditions: simple aqueous solution
[5] = target: T3, interaction between GST-E6 and three PDZ domains of hDlg fused to BAP (hDlg-BAP) (Human papillomavirus type 16, UniProt P03126); assay: E6/hDlg-BAP specificity filter binding assay; parameters: species or system HPV-16
T3 construct: made in house; host or cells: E. coli BL21
Protocol: as §2
as §1, with “Plates were cleared and dried with on the vacuum manifold. Assay – Immunostar assay reagent was prepared and equilibrated to RT prior to addition.” left out

[6] = target: T4, GST-HPV-16 E6 (human papillomavirus type 16), P03126; assay: filter plate bead binding assay (BAP chemiluminescence); competition: peptide added to bead-bound GST-E6 and free E6AP-BAP; 1 hour incubations
T4 chain: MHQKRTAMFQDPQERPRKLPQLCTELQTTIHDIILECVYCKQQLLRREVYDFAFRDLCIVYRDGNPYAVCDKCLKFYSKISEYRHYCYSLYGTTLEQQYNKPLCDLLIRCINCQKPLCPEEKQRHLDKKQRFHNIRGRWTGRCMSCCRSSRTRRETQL

[7] = in silico leads retested in duplicate at 5 concentrations 5 to 250 µM

O=c1cc(-c2ccccc2)oc2ccc(-c3cccc(-c4nnn[nH]4)c3)cc12 [CAF27]
IC50 [1]: 6.9 µM | Emax [1]: 96%

O=c1cc(-c2cccc(C(F)(F)F)c2)oc2ccc(-c3nnn[nH]3)cc12 [CAF25]
IC50 [1]: 1.1 µM | Emax [1]: 95%

CC(=O)Oc1cc(OC(C)=O)c2c(=O)c(OC(C)=O)c(-c3ccc(OC(C)=O)c(OC(C)=O)c3)oc2c1 [Compound 168]
IC50 [1]: 44 µM | IC50 [1, 7]: low micromolar IC50 values | non-specific inhibition / specificity in FLAG-E6AP control assay [2]: some non-specific inhibitory activity

O=C(O)c1cc(-c2ccc3c(=O)cc(-c4ccccc4)oc3c2)ccc1Cl [CAF31]
IC50 [1]: 62.2 µM | Emax [1]: 86%

COc1ccc(-c2ccc3oc(-c4ccccc4)cc(=O)c3c2)c(OC)c1C(=O)O [CAF29]
IC50 [1]: 12.5 µM | Emax [1]: 75%

O=C(O)c1cccc(-c2ccc3oc(-c4cccc(O)c4)cc(=O)c3c2)c1 [CAF28]
Emax [1]: 75%

COc1cc(OC)c2c(=O)cc(-c3ccc(OC)c(OC)c3)oc2c1 [CAF-8]
activity and potency in E6/E6AP binding assay (in words) [1]: no activity | effect on E6 mediated p53 degradation ([3]; 10 µM compound pre-incubated with E6): did not alter E6 mediated p53 degradation | effect on E6 mediated p53 degradation ([3]; 100 µM compound pre-incubated with E6): did not alter E6 mediated p53 degradation | effect on Tm of MBP-E6 (MBP-E6): unable to significantly alter MBP-E6 melting temperature; also recorded: no measurable effect

COc1ccc(CC2c3c(cc(OC)c(O)c3OC)CCN2C)cc1OC (centres unmarked) [Compound 117]
IC50 [1, 7]: low micromolar IC50 values | non-specific inhibition / specificity in FLAG-E6AP control assay [2]: inhibited binding in the FLAG-E6AP assay

O=c1cc(-c2ccc(O)cc2)oc2cc(O)cc(O)c12 [CAF-14]
increase of IC50 relative to luteolin [1]: 15-30 fold

COc1cc(O)cc2oc(-c3ccc(O)c(O)c3)cc(=O)c12 [CAF-10]
activity and potency in E6/E6AP binding assay (in words) [1]: same potency and activity as luteolin

O=C(O)c1cccc(-c2ccc3c(=O)cc(-c4ccccc4)oc3c2)c1 [CAF30]
IC50 [1]: 47.3 µM | Emax [1]: 84%

COc1ccc(NC2Oc3cc(O)ccc3C=C2C(=O)Nc2cccc(C)n2)cc1OC (centres unmarked) [Compound 160]
IC50 [1, 7]: low micromolar IC50 values | non-specific inhibition / specificity in FLAG-E6AP control assay [2]: inhibited binding in the FLAG-E6AP assay

O=c1cc(-c2ccc(O)c(O)c2)oc2cccc(O)c12 [CAF-13]
increase of IC50 relative to luteolin [1]: 15-30 fold

CC[C@H](C)[C@H](N)C(=O)N1CCC[C@H]1C(=O)N[C@@H](CCC(=O)O)C(=O)N[C@@H](CO)C(=O)N[C@@H](CO)C(=O)N[C@@H](CCC(=O)O)C(=O)N[C@@H](CC(C)C)C(=O)N[C@H](C(=O)N[C@@H](CC(C)C)C(=O)N[C@@H](CCC(N)=O)C(=O)N[C@@H](CCC(=O)O)C(=O)N[C@@H](CC(C)C)C(=O)N[C@@H](CC(C)C)C(=O)NCC(=O)N[C@@H](CCC(=O)O)C(=O)N[C@@H](CCC(=O)O)C(=O)N[C@@H](CCCNC(=N)N)C(=O)N[C@@H](CCCNC(=N)N)C(=O)O)[C@@H](C)O [E6AP 18-mer, reference compound]
inhibition at 100 µM ([1]; read-out: inhibition of binding): 95%

O=c1cc(-c2ccccc2)oc2ccc(-c3nnn[nH]3)cc12 [CAF-26]
IC50 [1]: 5.1 µM | IC50 ([1]; full 7-point dose response, 0.5 µM to 333 µM, quadruplicate): low micromolar IC50 values | Emax [1]: 97% | non-specific inhibition / specificity in FLAG-E6AP control assay [2]: increased specificity against the FLAG and hDlg control binding reactions | aqueous solubility (in words) [4]: limited aqueous solubility | specificity against hDlg control binding reaction [5]: increased specificity against the FLAG and hDlg control binding reactions | effect on Tm of MBP-E6 (MBP-E6): about 1 °C | shift of MBP-E6 Tm (MBP-E6; at 25, 50 and 150 µM): ~1 °C

CC(=O)Oc1cc(OC(C)=O)c2c(=O)cc(-c3ccc(OC(C)=O)c(OC(C)=O)c3)oc2c1 [Compound 170]
IC50 [1]: 44 µM | activity and potency in E6/E6AP binding assay (in words) [1]: much lower activity and potency than observed with the initial hit | IC50 [1, 7]: low micromolar IC50 values | non-specific inhibition / specificity in FLAG-E6AP control assay [2]: more selective inhibitor of the E6-E6AP interaction

O=C(O)c1cc(-c2ccc3c(=O)cc(-c4ccccc4)oc3c2)ccc1F [CAF32]
IC50 [1]: 48 µM | Emax [1]: 75%

B1: E6AP 18-mer peptide (peptide)
chain: IPESSELTLQELLGEERR
modifications: not checked
percent inhibition at 100 µM [6]: 95%
